Measured values: paper PMC3382068 (Bioorganic & medicinal chemistry, 2011)
Entries after “also recorded” stand apart in the source; their conditions may differ.

Legend:
[1] = tested on: GFP-K-Ras in Jurkat T cells; test: Subcellular localization of GFP-K-Ras by fluorescence microscopy; type: cell-based; details: 0.1 μM, 24 hours
[2] = tested on: Erk phosphorylation in Jurkat T cells; test: Signaling assay: anti-CD-3ε dependent Erk phosphorylation; type: cell-based; details: 25 μM, 24 h, then anti-CD-3ε stimulation
[3] = tested on: Ras activation in Jurkat T cells; test: GST-RBD pull down assay of active GTP-bound Ras; type: cell-based; details: 25 μM, 24 h, then anti-CD-3ε stimulation
hIcmt [4] = molecular target: T1, hIcmt (Homo sapiens, UniProt O60725); test: Kinetic mode of inhibition and KI determination
hIcmt [5] = molecular target: T1, hIcmt; test: In vitro vapor diffusion methyltransferase assay, inhibition of hIcmt; type: biochemical; details: for Loss of inhibitory activity as compared to compound 1a: fold; for hIcmt inhibition (in words): 10 μM compound, 25 μM AFC
[6] = tested on: PC3 prostate cancer cells; details: cited from earlier work
hIcmt [7] = molecular target: T1, hIcmt; details: read-out: IC50 against hIcmt; previously reported; cited from earlier work

T1 sequence (O60725 whole entry, the tested form may be a part): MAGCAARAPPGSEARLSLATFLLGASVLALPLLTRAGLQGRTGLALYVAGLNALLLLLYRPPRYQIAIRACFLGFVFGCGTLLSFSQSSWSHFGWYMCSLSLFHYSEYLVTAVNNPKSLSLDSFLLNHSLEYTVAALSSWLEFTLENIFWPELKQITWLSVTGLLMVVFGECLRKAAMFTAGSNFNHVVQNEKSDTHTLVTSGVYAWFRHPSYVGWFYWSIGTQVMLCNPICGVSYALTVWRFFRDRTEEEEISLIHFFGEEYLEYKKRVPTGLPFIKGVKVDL

CC(C)=CC/C(=C/CSC[C@H](NC(=O)c1ccccc1Oc1ccccc1)C(=O)O)CCc1ccc(-c2ccccc2)cc1 [Compound 1b, N-2-Phenoxybenzoyl-S-3-(3-methyl-but-2-enyl)-5-(4-biphenyl)pent-2-enyl-L-cysteine]
Prevention of GFP-K-Ras membrane localization [1]: approximately 35%
Decrease of Erk activation compared to the control [2]: approximately three-fold
Ras activation [3]: inhibited Ras activation significantly
Ki (hIcmt [4]): 0.5 ± 0.07 µM
Mode of inhibition (hIcmt [4]; AFC varied, inhibitor concentration fixed): mixed-mode inhibition; also recorded: mixed-type inhibition
α value (hIcmt [4]; mixed-type inhibition, competitive component dominated): greater than 1

CC(C)=CCC/C(C)=C/CC/C(C)=C/CSC[C@H](NC(=O)c1ccccc1Cc1ccccc1)C(=O)O [Compound 2c, (R)-2-(2-benzylbenzamido)-3-(((2E,6E)-3,7,11-trimethyldodeca-2,6,10-trien-1-yl)thio)propanoic acid]
Loss of inhibitory activity as compared to compound 1a (hIcmt [5]): roughly four-fold

CC(C)=CCC/C(C)=C/CC/C(C)=C/CSC[C@H](NC(=O)c1ccccc1Sc1ccccc1)C(=O)O [Compound 2d, (R)-2-(2-(phenylthio)benzamido)-3-(((2E,6E)-3,7,11-trimethyldodeca-2,6,10-trien-1-yl)thio)propanoic acid]
Loss of inhibitory activity as compared to compound 1a (hIcmt [5]): roughly four-fold

CC(C)=CCC/C(C)=C/CC/C(C)=C/CC/C(C)=C/CSC[C@H](NC(=O)c1ccccc1Oc1ccccc1)C(=O)O [Compound 19, (R)-2-(2-phenoxybenzamido)-3-(((2E,6E,10E)-3,7,11,15-tetramethylhexadeca-2,6,10,14-tetraen-1-yl)thio)propanoic acid]
hIcmt inhibition (in words) (hIcmt [5]): significant loss of hIcmt inhibition

CC(C)=CCC/C(C)=C/CC/C(C)=C/CSC[C@@H](C(=O)O)N(C)C(=O)c1ccccc1Oc1ccccc1 [Compound 20, (R)-2-(N-methyl-2-phenoxybenzamido)-3-(((2E,6E)-3,7,11-trimethyldodeca-2,6,10-trien-1-yl)thio)propanoic acid]
hIcmt inhibition (in words) (hIcmt [5]): equivalent to our previous lead, 1a, in terms of percent inhibition

CCCCCCCCCCCSC[C@H](NC(=O)c1ccccc1Oc1ccccc1)C(=O)O [Compound 21, ((R)-2-(2-phenoxybenzamido)-3-(undecylthio)propanoic acid)]
hIcmt inhibition (in words) (hIcmt [5]): particularly poor inhibitor of hIcmt

CCCCCCCCn1cc(CC(N)=O)c2cc(-c3cccc(C)c3)ccc21 [Cysmethynil]
Effect on PC3 prostate cancer cells [6]: induction of autophagic cell death

anthranilic farnesylcysteine [anthranilic acid analog]
IC50 (hIcmt [7]): 7.1 µM
